The target in assay [1] is T1, human HSD17B13 (Homo sapiens, UniProt Q7Z5P4).
T1 construct: expressed in transfected cells
T1 sequence (Q7Z5P4 20-300): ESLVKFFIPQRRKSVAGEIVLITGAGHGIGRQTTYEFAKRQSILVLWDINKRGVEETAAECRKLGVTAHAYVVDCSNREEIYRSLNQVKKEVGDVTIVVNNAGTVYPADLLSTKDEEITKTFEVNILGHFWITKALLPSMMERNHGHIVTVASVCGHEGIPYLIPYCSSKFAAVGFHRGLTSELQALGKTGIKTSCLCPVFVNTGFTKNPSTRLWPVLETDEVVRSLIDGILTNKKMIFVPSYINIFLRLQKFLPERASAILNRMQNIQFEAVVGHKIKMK
Nature of the assay: Cell assay: HEK cells stably expressing wild-type human HSD17B13, estrone production by LCMS. In kind it is cell-based. The procedure:
Cell inhibition potency of test compounds was determined using a whole-cell HEK overexpressing HSD17B13, utilizing a liquid chromatography/mass spectrometry (LCMS) readout.
In this assay HSD17B13 uses NAD^+ as a cofactor during metabolism of β-estradiol, converting NAD^+ to NADH and β-estradiol to estrone. Estrone production is quantified by LCMS using a Sciex API-5500-Electrospray system (AB Sciex LLC, MA, USA), and used as a measure of HSD17B13 enzyme activity.
The amount of product (estrone) was then quantified by LCMS using software provided (Analyst 1.7, Hotfix 3, MultiQuant 3.0.31721.0). Data expressed as product area ratio (PAR) were then normalized to control wells using Activity Base (IDBS). Zero percent effect (ZPE) was defined as PAR generated from uninhibited HSD17B13 (vehicle control).

In assay [2] the target is T2, human HSD17B13 (Homo sapiens, UniProt Q7Z5P4).
T2 construct: human HSD17B13 (residues 2-300, NP_835236.2); 10x His (N); TEV protease site (N); made in house; host or cells: Sf9 (baculovirus)
T2 sequence (Q7Z5P4 2-300): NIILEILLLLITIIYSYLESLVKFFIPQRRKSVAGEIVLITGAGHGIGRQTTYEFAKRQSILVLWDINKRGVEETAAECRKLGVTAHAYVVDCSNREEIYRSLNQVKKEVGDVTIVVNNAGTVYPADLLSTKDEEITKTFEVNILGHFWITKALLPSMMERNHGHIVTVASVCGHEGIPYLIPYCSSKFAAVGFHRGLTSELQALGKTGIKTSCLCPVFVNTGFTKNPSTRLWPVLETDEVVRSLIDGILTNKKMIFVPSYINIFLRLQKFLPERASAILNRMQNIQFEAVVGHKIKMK
Put plainly: Thermal shift assay (static light scattering, Tagg), human HSD17B13. Format: binding. Particulars: for Tagg, individual measurements: 10.4 µM protein; for thermal stability change: Fig. 6c. An excerpt: To understand ligand binding, we tested several approaches such as surface plasmon resonance and isothermal calorimetry. […] We next turned to thermal shift assays (TSA) for comparing ligand binding affinities. TSA measures the changes in the thermal denaturation temperature of a protein under different conditions such as the presence compound, changes in buffer conditions, or sequence mutations. There are various readouts including intrinsic fluorescence or light scattering signals. We chose the static light scattering methods to detect the temperatures at which our proteins start to aggregate (Tagg), which are more suitable for membrane proteins that require detergent micelles for stability.
TSA studies were run on the UNit instrument (Unchained Labs, CA, USA). Experiments were run in either 25 mM sodium phosphate pH 7, 150 mM NaCl, 10% glycerol, 1 mM TCEP, 0.05% DDM, + different cofactors (NAD^+, NADH, NADP, NADPH; MilliporeSigma) or 25 mM HEPES pH 7.2, 300 mM NaCl, 0.5 mM TCEP, 0.05% DDM, 10% glycerol, ±500 µM NAD^+, and ±100 µM compound 1 (from 2 mM DMSO stock) or DMSO or 50 mM Hepes pH 7.5, 300 mM NaCl, 0.5 mM TCEP, 0.05% DDM, 500 µM NAD^+, ± 50 µM compounds (from 2 mM stock) or DMSO. Protein aggregation was measured by static light scattering at 266 and 473 nm with a 1 °C/sec ramp rate from 20-80 °C. The data was processed using the UNcle software (Unchained Labs, CA, USA), and temperatures at which the protein started aggregation were recorded as Tagg. Reported Tagg and analysis were based on measurements at 266 nm unless otherwise indicated.

Assay [3] concerns the target T2, human HSD17B13. Put plainly: Co-factor (NAD+ / NADP) dependency biochemical assay, NAD(P)H-Glo readout, uninhibited vs inhibited reactions. Particulars: 30 μM 1, 20 nM protein. The procedure: Dependency of co-factor (NAD^+ and NADP^+) was determined using a purified protein HSD17B13 biochemical enzyme activity assay, using NAD(P)H-Glo luciferase readout (Promega). Substrates β-estradiol (Sigma, E8875) and Leukotriene B4 (LTB4, Cayman), 15 μM FAC in assay buffer (25 mM Tris-HCl (Sigma T2444) and 0.02% Triton X-100, pH 7.6), and 500 µM FAC co-factor (NAD^+ or NADP, Sigma, N8285) in assay buffer were added (2.5 µL/well each) to 384-well assay plates (Corning 3824) containing 2.5 μL of either 30 μM FAC inhibitor in 1% DMSO/assay buffer or vehicle (1% DMSO/assay buffer), in triplicate. The reaction was initiated by the addition of 2.5 µL/well-purified HSD17B13 protein (20 nM FAC in assay buffer). Compound, substrate, co-factor, and HSD17B13 protein were incubated in the dark at room temperature for 2 hours before the addition of 10 µL/well NAD(P)H-Glo detection reagent, prepared from luciferase detection reagent and reductase/reductase substrate, as per manufacturer’s instructions (Promega, G9061). Detection reagent was incubated in the dark for 1 hour at room temperature before plates were read on the Envision plate reader (Perkin Elmer) using a luminescent protocol. Data expressed as relative luminescent units (RLUs) were exported from the plate reader and plotted in GraphPad Prism.

Where “and” joins values, the source holds several entries; their conditions need not be identical. Equal entries are not always repeated.

As a reminder, the IC50 is the concentration at which inhibition is half-maximal.

For `O=C(NC[C@]1(O)CC[C@H](COc2ccccc2F)CC1)c1ccc(O)c(F)c1` [Compound 1], on human HSD17B13 [1] (HEK cells overexpressing HSD17B13), the “activity in cell assay” value is recorded as “active”. Besides, on human HSD17B13 [1] (HEK cells overexpressing HSD17B13, β-estradiol substrate), half-maximal inhibition (IC50) required 570 ± 120 nM. Also, the “Tagg, individual measurements” value at human HSD17B13 [2] (100 µM ligand + 500 µM NAD+) is 54.6 °C and 55.1 °C (2×) and 54.2 °C; at human HSD17B13 [2] (100 µM ligand, buffer without NAD+) it was 41.2 °C and 41.6 °C and 44.6 °C and 45 °C. Also, the deltaTagg on human HSD17B13 [2] (500 uM NAD, 100 µM ligand, Tagg(compound + NAD+) - Tagg(buffer + NAD+)) is listed as 13.1. In addition, the “thermal stability change” value is “no significant effect” at human HSD17B13 [2] (in the absence of cofactor) and “significant increase in thermal stability” on human HSD17B13 [2] (in the presence of NAD+). The “binding in TSA” value at human HSD17B13 [2] (Fig. 6d, 500 μM NAD+) was “bound human HSD17B13 strongly”. Besides, on human HSD17B13 [2] (Fig. 6d, 500 μM NAD+, 50 µM compound), the Tagg is 49.1 ± 2.0 °C. For the same molecule, the dTagg at human HSD17B13 [2] (no NAD, 100 µM ligand, vs buffer) was determined as 3.033. In addition, the “signal of inhibited reaction” value is 49880 RLU and 52640 RLU at human HSD17B13 [3] (LTB4 + NAD); 49240 RLU and 47920 RLU on human HSD17B13 [3] (LTB4 + NADP); 48200 RLU and 48320 RLU at human HSD17B13 [3] (β-estradiol + NAD); 47760 RLU and 49720 RLU on human HSD17B13 [3] (β-estradiol + NADP).

Source of the values: article PMC10449848, “Structural basis of lipid-droplet localization of 17-beta-hydroxysteroid dehydrogenase 13” (Nature Communications, 2023).
